Measured values reported in patent publication US20220281841A1, “ETHYNYLHETEROCYCLES AS RHO-ASSOCIATED COILED-COIL KINASE (ROCK) INHIBITORS” (Angion Biomedica Corp., priority 2019, published 2022).
Counter-ions that a name gives are not always drawn.

What was measured:
[1] = tested on: fibroblasts; conditions: fibroblasts treated with KD025; cited from earlier work
[2] = 12-16 weeks of dosing in healthy volunteers and patients; cited from earlier work
[3] = tested on: murine autoimmune disease; conditions: cited from earlier work
[4] = biological target: T1, ROCK2 (Homo sapiens, UniProt O75116); assay: ROCK2 kinase binding affinity, DiscoverX KINOMEscan KdELECT; conditions: for Kd: equilibrium dissociation constant, 11-point 3-fold dilution series, read-out: Kd (μM) ROCK2; for ROCK 2 Selectivity: ROCK2 over ROCK1, from Kd values, N/C = not calculated
T1 construct: purchased DiscoverX (KINOMEscan KdELECT service); host or cells: E. coli BL21-derived (T7 phage) or HEK-293
Method: (§1) 1. ROCK1 and ROCK2 kinase assays: The ROCK1 and ROCK2 kinase binding affinities of compounds in this invention were determined by DiscoverX's KINOMEscan™ KdELECT technology (https://www.discoverx.com/kinomescan-elect-kinase-screening-and-profiling-services): Kinase-tagged T7 phage strains were prepared in an E. coli host derived from the BL21 strain. E. coli were grown to log-phase and infected with T7 phage and incubated with shaking at 32° C. until lysis. The lysates were centrifuged and filtered to remove cell debris. The remaining kinases were produced in HEK-293 cells and subsequently tagged with DNA for qPCR detection. Streptavidin-coated magnetic beads were treated with biotinylated small molecule ligands for 30 minutes at room temperature to generate affinity resins for kinase assays. The liganded beads were blocked with excess biotin and washed with blocking buffer (SeaBlock (Pierce), 1% BSA, 0.05% Tween 20, 1 mM DTT) to remove unbound ligand and to reduce nonspecific binding. […] Test compounds were prepared as 111X stocks in 100% DMSO. Kds were determined using an 11-point 3-fold compound dilution series with three DMSO control points. […] The compounds were then diluted directly into the assays such that the final concentration of DMSO was 0.9%. All reactions performed in polypropylene 384-well plate. Each was a final volume of 0.02 ml. […] The kinase concentration in the eluates was measured by qPCR.

[5] = biological target: T2, ROCK1 (Homo sapiens, UniProt Q13464); assay: ROCK1 kinase binding affinity, DiscoverX KINOMEscan KdELECT; conditions: equilibrium dissociation constant, 11-point 3-fold dilution series
T2 construct: purchased DiscoverX (KINOMEscan KdELECT service); host or cells: E. coli BL21-derived (T7 phage) or HEK-293
Method: as §1

T2 sequence (Q13464 whole entry): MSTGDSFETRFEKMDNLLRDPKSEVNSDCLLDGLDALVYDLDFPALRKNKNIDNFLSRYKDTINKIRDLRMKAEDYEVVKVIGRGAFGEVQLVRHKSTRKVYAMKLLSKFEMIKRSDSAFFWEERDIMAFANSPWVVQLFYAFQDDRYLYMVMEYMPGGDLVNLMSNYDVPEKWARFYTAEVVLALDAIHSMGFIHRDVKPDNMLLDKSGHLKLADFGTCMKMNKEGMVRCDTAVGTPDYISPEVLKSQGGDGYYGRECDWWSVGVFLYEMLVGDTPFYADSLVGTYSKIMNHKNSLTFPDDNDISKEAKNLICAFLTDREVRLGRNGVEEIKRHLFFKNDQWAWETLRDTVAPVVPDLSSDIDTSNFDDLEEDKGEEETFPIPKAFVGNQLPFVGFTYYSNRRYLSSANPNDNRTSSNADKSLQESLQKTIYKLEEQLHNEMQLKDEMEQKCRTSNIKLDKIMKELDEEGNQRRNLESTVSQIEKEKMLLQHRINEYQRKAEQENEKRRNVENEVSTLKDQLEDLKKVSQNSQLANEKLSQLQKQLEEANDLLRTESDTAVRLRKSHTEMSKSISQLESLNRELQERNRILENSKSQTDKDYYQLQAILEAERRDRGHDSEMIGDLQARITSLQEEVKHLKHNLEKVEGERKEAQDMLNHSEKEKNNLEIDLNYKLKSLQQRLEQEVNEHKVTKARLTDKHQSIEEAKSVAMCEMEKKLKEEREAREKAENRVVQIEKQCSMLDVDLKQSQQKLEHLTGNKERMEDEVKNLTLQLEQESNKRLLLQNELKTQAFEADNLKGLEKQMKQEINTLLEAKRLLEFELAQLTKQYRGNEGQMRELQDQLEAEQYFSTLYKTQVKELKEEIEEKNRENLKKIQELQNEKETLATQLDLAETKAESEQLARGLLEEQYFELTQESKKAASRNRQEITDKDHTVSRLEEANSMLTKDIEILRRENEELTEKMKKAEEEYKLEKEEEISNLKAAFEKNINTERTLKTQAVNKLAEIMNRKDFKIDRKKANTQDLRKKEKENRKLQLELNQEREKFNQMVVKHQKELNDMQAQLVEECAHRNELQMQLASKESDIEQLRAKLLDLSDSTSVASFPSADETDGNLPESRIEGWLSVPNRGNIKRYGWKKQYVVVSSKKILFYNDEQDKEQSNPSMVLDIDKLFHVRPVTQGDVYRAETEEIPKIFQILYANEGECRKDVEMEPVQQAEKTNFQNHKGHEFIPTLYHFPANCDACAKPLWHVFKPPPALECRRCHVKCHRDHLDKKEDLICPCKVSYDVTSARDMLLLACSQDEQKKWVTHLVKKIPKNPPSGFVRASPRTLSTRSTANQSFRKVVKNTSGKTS
T1 sequence (O75116 whole entry): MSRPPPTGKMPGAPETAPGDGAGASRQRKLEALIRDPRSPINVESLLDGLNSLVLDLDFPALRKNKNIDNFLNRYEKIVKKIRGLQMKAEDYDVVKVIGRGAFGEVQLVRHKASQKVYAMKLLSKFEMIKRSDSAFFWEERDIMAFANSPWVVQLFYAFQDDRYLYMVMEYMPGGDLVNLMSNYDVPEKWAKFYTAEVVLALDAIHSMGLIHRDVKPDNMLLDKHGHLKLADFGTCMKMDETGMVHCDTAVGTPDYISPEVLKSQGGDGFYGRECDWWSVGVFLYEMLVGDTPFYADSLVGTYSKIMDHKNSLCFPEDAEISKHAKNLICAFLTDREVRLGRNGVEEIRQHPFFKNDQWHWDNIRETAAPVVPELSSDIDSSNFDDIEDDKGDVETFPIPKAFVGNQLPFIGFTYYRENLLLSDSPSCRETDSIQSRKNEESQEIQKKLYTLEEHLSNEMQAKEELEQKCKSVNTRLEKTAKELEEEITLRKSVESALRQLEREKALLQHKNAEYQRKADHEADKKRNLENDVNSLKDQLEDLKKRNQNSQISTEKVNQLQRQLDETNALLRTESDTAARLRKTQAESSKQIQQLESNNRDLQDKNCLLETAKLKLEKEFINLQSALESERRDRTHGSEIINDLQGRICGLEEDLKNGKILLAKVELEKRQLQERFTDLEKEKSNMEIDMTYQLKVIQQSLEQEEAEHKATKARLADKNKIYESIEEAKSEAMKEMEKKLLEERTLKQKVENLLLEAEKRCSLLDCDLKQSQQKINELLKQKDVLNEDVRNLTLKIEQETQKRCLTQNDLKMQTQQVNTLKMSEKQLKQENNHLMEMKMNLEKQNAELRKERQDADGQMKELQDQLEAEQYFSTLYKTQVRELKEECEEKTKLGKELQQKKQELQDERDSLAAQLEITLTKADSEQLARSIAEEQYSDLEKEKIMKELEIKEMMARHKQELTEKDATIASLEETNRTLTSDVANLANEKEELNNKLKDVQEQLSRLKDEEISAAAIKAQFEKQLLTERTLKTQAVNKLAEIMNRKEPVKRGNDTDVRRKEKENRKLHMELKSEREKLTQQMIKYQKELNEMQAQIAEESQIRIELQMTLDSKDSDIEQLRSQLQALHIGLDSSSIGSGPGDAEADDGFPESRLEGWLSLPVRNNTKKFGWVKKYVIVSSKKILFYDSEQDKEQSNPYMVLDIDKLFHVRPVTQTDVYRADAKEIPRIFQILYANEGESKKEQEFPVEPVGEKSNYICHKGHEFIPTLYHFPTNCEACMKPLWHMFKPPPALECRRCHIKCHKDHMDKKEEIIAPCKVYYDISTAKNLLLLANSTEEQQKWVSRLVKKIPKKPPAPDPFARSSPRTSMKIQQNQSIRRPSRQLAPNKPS

Row | Compound | Kd [4] [µM] | Kd [5] [µM] | ROCK 2 Selectivity [4] | expression of profibrotic mRNA [1] | hemodynamic or other side effects [2] | expression of pro-inflammatory, fibrosis-linked cytokines; autoimmune disease [3]
1 | CC(C)NC(=O)COc1cccc(-c2nc(Nc3ccc4[nH]ncc4c3)c3ccccc3n2)c1 [KD025] | – | – | – | decreased expression of several profibrotic mRNA including that of CTGF | no hemodynamic or other side effects | decreased expression of pro-inflammatory, fibrosis-linked cytokines and mitigated murine autoimmune disease
2 | Fc1cc(C#Cc2ccc3[nH]ncc3c2)cc(-c2ccnc(N3Cc4ccc(Br)cc4C3)n2)c1 [Ex. 27, 5-((3-(2-(5-Bromoisoindolin-2-yl)pyrimidin-4-yl)-5-fluorophenyl)ethynyl)-1H-indazole] | > 30 | > 30 | – | – | – | –
3 | COc1ccc2c(c1)CN(c1nccc(-c3cccc(C#Cc4ccc5[nH]ncc5c4)n3)n1)C2 [Ex. 18, 5-((6-(2-(5-Methoxyisoindolin-2-yl)pyrimidin-4-yl)pyridin-2-yl)ethynyl)-1H-indazole] | 0.12 | 25 | – | – | – | –
4 | C(#Cc1ccnc(-c2ccnc(N3CC(c4ccccc4)C3)n2)n1)c1ccc2[nH]ncc2c1 [Ex. 48, 5-((2′-(3-Phenylazetidin-1-yl)-[2,4′-bipyrimidin]-4-yl)ethynyl)-1H-indazole trifluoroacetate] | 0.15 | 5.5 | 36.7 | – | – | –
5 | COc1ccc2c(c1)CN(c1nccc(-c3nccc(C#Cc4cc(F)c5[nH]ncc5c4)n3)n1)C2 [Ex. 6, 7-Fluoro-5-((2′-(5-methoxyisoindolin-2-yl)-[2,4′-bipyrimidin]-4-yl)ethynyl)-1H-indazole] | 0.012 | 29 | 2417 | – | – | –

Continued, in another order:

Row | Kd [4] [µM] | Kd [5] [µM] | ROCK 2 Selectivity [4] | Compound | expression of profibrotic mRNA [1] | hemodynamic or other side effects [2] | expression of pro-inflammatory, fibrosis-linked cytokines; autoimmune disease [3]
6 | > 30 | > 30 | – | CN1CCN(c2ccc3c(c2)CN(c2nccc(-c4cc(F)cc(C#Cc5ccc6[nH]ncc6c5)c4)n2)C3)CC1 [Ex. 29, 5-((3-Fluoro-5-(2-(5-(4-methylpiperazin-1-yl)isoindolin-2-yl)pyrimidin-4-yl)phenyl)ethynyl)-1H-indazole] | – | – | –
7 | 0.083 | 0.64 | 7.71 | C(#Cc1ccnc(-c2ccnc(N3Cc4ccc(OCCN5CCOCC5)cc4C3)n2)n1)c1ccc2[nH]ncc2c1 [Ex. 42, 4-(2-((2-(4-((1H-Indazol-5-yl)ethynyl)-[2,4′-bipyrimidin]-2′-yl)isoindolin-5-yl)oxy)ethyl)morpholine] | – | – | –
8 | > 30 | > 30 | – | CN(C)CCOc1ccc2c(c1)CN(c1nccc(-c3cc(F)cc(C#Cc4ccc5[nH]ncc5c4)c3)n1)C2 [Ex. 28, 2-((2-(4-(3-((1H-Indazol-5-yl)ethynyl)-5-fluorophenyl)pyrimidin-2-yl)isoindolin-5-yl)oxy)-N,N-dimethylethanamine] | – | – | –
9 | 0.072 | > 30 | >417 | C(#Cc1ccnc(-c2ccnc(N3Cc4c[nH]nc4C3)n2)n1)c1ccc2[nH]ncc2c1 [Ex. 35, 5-((2′-(2,6-Dihydropyrrolo[3,4-c]pyrazol-5(4H)-yl)-[2,4′-bipyrimidin]-4-yl)ethynyl)-1H-indazole] | – | – | –
10 | 0.33 | > 30 | >90.9 | C(#Cc1ccnc(-c2ccnc(N3CCN(c4nccs4)CC3)n2)n1)c1ccc2[nH]ncc2c1 [Ex. 63, 2-(4-(4-((1H-Indazol-5-yl)ethynyl)-[2,4′-bipyrimidin]-2′-yl)piperazin-1-yl)thiazole] | – | – | –
11 | 0.083 | 12 | 144 | CN1CCN(c2ccc3c(c2)CN(c2nccc(-c4nccc(C#Cc5ccc6[nH]ncc6c5)n4)n2)C3)CC1 [Ex. 40, 5-((2′-(5-(4-Methylpiperazin-1-yl)isoindolin-2-yl)-[2,4′-bipyrimidin]-4-yl)ethynyl)-1H-indazole] | – | – | –
12 | 0.0023 | 0.075 | 32.6 | CNC(=O)COc1ccc2c(c1)CN(c1nccc(-c3nccc(C#Cc4ccc5[nH]ncc5c4)n3)n1)C2 [Ex. 44, 2-((2-(4-((1H-Indazol-5-yl)ethynyl)-[2,4′-bipyrimidin]-2′-yl)isoindolin-5-yl)oxy)-N-methylacetamide] | – | – | –
13 | 0.26 | 9.4 | 36.2 | C(#Cc1ccnc(-c2ccnc(N3CCC(c4ccccc4)C3)n2)n1)c1ccc2[nH]ncc2c1 (centres unmarked) [Ex. 69, 5-((2′-(3-Phenylpyrrolidin-1-yl)-[2,4′-bipyrimidin]-4-yl)ethynyl)-1H-indazole] | – | – | –
